For data set [1], the system named is SH-SY5Y cells. Kind of data set: Cell viability (MTT) in SH-SY5Y cells. The class given is cell-based, human. Conditions: up to 100 μM, 24 h. The protocol:
Toxicity testing of selected compounds
The impact of compounds on cell viability was assayed at the end of incubation period using a standard MTT assays as described earlier in Svarcbahs et al.11 and Myöhänen et al.12 HEK-293 and SH-SY5Y cells and mouse primary neurons were seeded onto 96-well plates (10,000 cells/well) and incubated overnight. Thereafter, the cells were incubated with 1, 10, and 100 µM of study compounds for 24 h (HEK-293 and SH-SY5Y cells) or 48 h (mouse primary neurons), followed by the measurement of mitochondrial […]
Figure S68. Selected oxazoles were tested for cell viability in an MTT assay after 24 h treatment in (A) HEK-293 cells and (B) SH-SY5Y cells and 48 h treatment in (C) mouse primary neurons. Even with the high […]
Data are presented as mean + […]
LC-MS detection of HUP-55 metabolites in the mouse brain
The same column and gradient was used with UPLC-HDMS analysis of the metabolites of HUP-55, as for the analysis of HUP-55 detailed in the experimental section of the article. The analyses were performed with ESI (+) resolution mode and the exact masses were analysed with UPLC-Synapt G2 QTOF/MS (Waters). The […]
Compound Retention time (min) m/z (M+H)+ Empirical formula

In data set [2] the target is T1, PREP in HEK-293 cells (Homo sapiens, UniProt P48147).
T1 construct: endogenous in cells; host or cells: HEK-293 (ATCC)
T1 sequence (P48147 1-710): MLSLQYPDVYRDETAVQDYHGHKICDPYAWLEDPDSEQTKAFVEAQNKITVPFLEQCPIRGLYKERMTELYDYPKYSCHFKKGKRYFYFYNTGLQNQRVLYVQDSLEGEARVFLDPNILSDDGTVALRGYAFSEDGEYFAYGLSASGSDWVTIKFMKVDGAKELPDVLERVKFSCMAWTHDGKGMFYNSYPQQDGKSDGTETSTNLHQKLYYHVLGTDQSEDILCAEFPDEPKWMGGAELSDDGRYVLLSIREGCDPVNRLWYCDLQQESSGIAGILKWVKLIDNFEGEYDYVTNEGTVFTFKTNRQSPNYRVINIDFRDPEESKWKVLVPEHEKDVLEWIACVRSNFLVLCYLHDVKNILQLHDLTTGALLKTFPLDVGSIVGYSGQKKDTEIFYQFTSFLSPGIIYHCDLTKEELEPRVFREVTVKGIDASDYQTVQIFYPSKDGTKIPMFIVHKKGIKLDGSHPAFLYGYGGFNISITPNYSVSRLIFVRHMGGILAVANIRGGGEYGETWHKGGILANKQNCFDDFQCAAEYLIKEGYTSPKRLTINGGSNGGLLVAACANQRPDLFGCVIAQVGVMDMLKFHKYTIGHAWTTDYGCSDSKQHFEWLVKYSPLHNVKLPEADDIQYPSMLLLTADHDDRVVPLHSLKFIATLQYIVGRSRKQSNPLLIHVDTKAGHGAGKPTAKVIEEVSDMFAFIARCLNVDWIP
Kind of data set: Cellular thermal shift assay (CETSA). The class given is cell-based. Conditions: 10 μM, 1 h. As to the method:
CETSA was performed as previously described.[41] HEK-293 cells were seeded to T25 flasks with a density of 1 × 10^6 cells. […] After the exposure, the cells were collected in PBS and aliquoted into 7 PCR tubes (100,000 cells/tube). The cells were prewarmed at 37 °C for 3 min, then heated to 37, 47, 50, 53, 56, 63, or 67 °C for 3 min and subsequently cooled at 25 °C for 3 min using a PCR Mastercycler (T100 Thermal Cycler, Bio-Rad). After heating, the cells were disrupted with two freeze–thaw cycles by submerging the tubes into liquid nitrogen and subsequently thawed by incubation at 25 °C for 3 min. The aggregated proteins were removed by centrifugation (at 20,000g for 20 min at 4 °C), and the soluble fractions were diluted with Laemmli buffer (Bio-Rad, Hercules, CA) and analyzed with Western blot as described above. The nondenaturated protein fractions (%) were calculated by comparing the intensities of temperature-treated cell samples to the corresponding cell samples from 37 °C.

This note sets out measurements from article PMC10258805, “Nonpeptidic Oxazole-Based Prolyl Oligopeptidase Ligands with Disease-Modifying Effects on α-Synuclein Mouse Models of Parkinson’s Disease” (Journal of Medicinal Chemistry, 2023).

Consider `Cc1nc(CCCc2ccccc2)oc1N1CCC[C@H]1C#N` [HUP-55, (S)-1-(4-Methyl-2-(3-phenylpropyl)oxazol-5-yl)pyrrolidine-2-carbonitrile], for which the “toxicity (cell viability)” value in data set [1] is given as “None of the compounds caused any toxicity”. In addition, the “fitted mean aggregation temperature” value in data set [2] worked out at 53.19 °C. Also, the “increase in the fitted mean aggregation temperature” value in data set [2] (vs DMSO) turned out to be 3.01 °C.
